Assay results from patent US20200231638A1, “STABILIZED ANTI-MICROBIAL PEPTIDES” (priority 2015, published 2020).
Bridge positions count the residues as written; N and C are the ends. Square brackets hold non-standard residues; d marks the D form. Peptide text beside a SMILES is read from it. S5 = C=CCCC[C@](C)(N)C(=O)O; Nle = CCCC[C@H](N)C(=O)O

Key:
E. coli = assay type: cell-based, Escherichia coli
Protocol: (§1) Antimicrobial Activity Assay:
(§2) The following microbroth dilution protocol was adapted to determine the minimum inhibitory concentration (MIC) of each peptide. First, Mueller-Hinton broth (MHB) was passed through an anion exchange column to remove polyanionic species and generate refined MHB. […] Briefly, bacterial cells was grown overnight in refined MHB at 37° C. and then diluted and allowed to grow again for several hours. Serial dilutions of peptide stocks in water (10 μl) were prepared using clear round-bottom polypropylene 96-well plates. Then 90 μl of bacteria in refined MHB was added to give a final inoculum of 5×10^5 CFU/ml. The plates were then covered with porous tape to reduce evaporation, and incubated for 20-24 hours at 37° C. The MIC is the minimum peptide concentration at which no visible growth was observed.

B. cereus = assay type: cell-based, Bacillus cereus
Protocol: as §1, §2

S. aureus = assay type: cell-based, Staphylococcus aureus
Protocol: as §1, §2

P. aeruginosa = assay type: cell-based, Pseudomonas aeruginosa
Protocol: as §1, §2

human red blood cells = assay type: cell-based; settings: red cells of human, 1 h, 25
Protocol: FIG. 5 is a series of line graphs depicting the hemolytic activity of magainin II and stapled analogues. Peptides were incubated with 1% (v/v) human red blood cells in phosphate-buffered solution for 1 hour at 37° C. and then the supernatant was isolated and the amount of hemoglobin released was measured at 540 nm. % hemolysis was calculated relative to an untreated control.
Hemolytic Activity Assay:
For the determination of hemolytic activity, human blood samples were centrifuged to isolate red blood cells (RBCs), which are then washed and suspended in phosphate-buffered saline to yield a 1% (v/v) suspension. The suspension was then added to serial dilutions of peptide stocks in water in clear round-bottom polypropylene 96-well plates and the plates were incubated for 1 hour at 37° C. After incubation, the plates were centrifuged and the supernatant was isolated to determine the amount of hemoglobin released using a spectrophotometer (570 nm), according to the equation: % Hemolysis=(Treated Absorbance−Untreated Control Absorbance)/(1% Triton-X100 Treated Absorbance−Untreated Control Absorbance). The minimum hemolytic concentration (MHC) is the peptide concentration at which there is less than 1% hemoglobin release.

SMILES: CCCC[C@H](NC(=O)[C@@H](NC(=O)[C@H](CCC(=O)O)NC(=O)CNC(=O)[C@@H](NC(=O)[C@H](Cc1ccccc1)NC(=O)[C@]1(C)CCCC=CCCC[C@](C)(NC(=O)[C@H](CCCCN)NC(=O)[C@H](C)NC(=O)[C@H](CO)NC(=O)[C@H](Cc2c[nH]cn2)NC(=O)[C@H](CC(C)C)NC(=O)[C@H](Cc2ccccc2)NC(=O)[C@H](CCCCN)NC(=O)CNC(=O)[C@@H](NC(=O)CN)[C@@H](C)CC)C(=O)N[C@@H](Cc2ccccc2)C(=O)NCC(=O)N[C@@H](CCCCN)C(=O)N1)C(C)C)[C@@H](C)CC)C(=O)N[C@@H](CC(N)=O)C(=O)N[C@@H](CO)C(N)=O [Mag(i + 4)10] (H-GIGKFLHSAK[S5]FGK[S5]FVGEI[Nle]NS-NH2; staple 11-15)
- MIC E. coli (E. coli): 3.1 µg/mL
- MIC B. cereus (B. cereus): 6.2 µg/mL
- MIC S. aureus (S. aureus): 6.2 µg/mL
- MIC P. aeruginosa (P. aeruginosa): 12.5 µg/mL
- % Hemolysis at 25 μg/ml (human red blood cells): 23.6%

SMILES: CCCC[C@H](NC(=O)[C@@H](NC(=O)[C@H](CCC(=O)O)NC(=O)CNC(=O)[C@@H](NC(=O)[C@]1(C)CCCC=CCCC[C@](C)(NC(=O)[C@H](CCCCN)NC(=O)[C@H](CCCCN)NC(=O)[C@H](C)NC(=O)[C@H](CO)NC(=O)[C@H](Cc2c[nH]cn2)NC(=O)[C@H](CC(C)C)NC(=O)[C@H](Cc2ccccc2)NC(=O)[C@H](CCCCN)NC(=O)CNC(=O)[C@@H](NC(=O)CN)[C@@H](C)CC)C(=O)NCC(=O)N[C@@H](CCCCN)C(=O)N[C@@H](C)C(=O)N1)C(C)C)[C@@H](C)CC)C(=O)N[C@@H](CC(N)=O)C(=O)N[C@@H](CO)C(N)=O [Mag(i + 4)11] (H-GIGKFLHSAKK[S5]GKA[S5]VGEI[Nle]NS-NH2; staple 12-16)
- MIC E. coli (E. coli): 3.1 µg/mL
- MIC B. cereus (B. cereus): 6.2 µg/mL
- MIC S. aureus (S. aureus): 12.5 µg/mL
- MIC P. aeruginosa (P. aeruginosa): 6.2 µg/mL
- % Hemolysis at 25 μg/ml (human red blood cells): 17.5%

SMILES: CCCC[C@H](NC(=O)[C@@H](NC(=O)[C@H](CCC(=O)O)NC(=O)CNC(=O)[C@]1(C)CCCC=CCCC[C@](C)(NC(=O)[C@H](Cc2ccccc2)NC(=O)[C@H](CCCCN)NC(=O)[C@H](CCCCN)NC(=O)[C@H](C)NC(=O)[C@H](CO)NC(=O)[C@H](Cc2c[nH]cn2)NC(=O)[C@H](CC(C)C)NC(=O)[C@H](Cc2ccccc2)NC(=O)[C@H](CCCCN)NC(=O)CNC(=O)[C@@H](NC(=O)CN)[C@@H](C)CC)C(=O)N[C@@H](CCCCN)C(=O)N[C@@H](C)C(=O)N[C@@H](Cc2ccccc2)C(=O)N1)[C@@H](C)CC)C(=O)N[C@@H](CC(N)=O)C(=O)N[C@@H](CO)C(N)=O [Mag(i + 4)12] (H-GIGKFLHSAKKF[S5]KAF[S5]GEI[Nle]NS-NH2; staple 13-17)
- MIC E. coli (E. coli): 3.1 µg/mL
- MIC B. cereus (B. cereus): 3.1 µg/mL
- MIC S. aureus (S. aureus): 6.2 µg/mL
- MIC P. aeruginosa (P. aeruginosa): 3.1 µg/mL
- % Hemolysis at 25 μg/ml (human red blood cells): 76.8%

SMILES: CCCC[C@H](NC(=O)[C@@H](NC(=O)[C@H](CCC(=O)O)NC(=O)[C@]1(C)CCCC=CCCC[C@](C)(NC(=O)CNC(=O)[C@H](Cc2ccccc2)NC(=O)[C@H](CCCCN)NC(=O)[C@H](CCCCN)NC(=O)[C@H](C)NC(=O)[C@H](CO)NC(=O)[C@H](Cc2c[nH]cn2)NC(=O)[C@H](CC(C)C)NC(=O)[C@H](Cc2ccccc2)NC(=O)[C@H](CCCCN)NC(=O)CNC(=O)[C@@H](NC(=O)CN)[C@@H](C)CC)C(=O)N[C@@H](C)C(=O)N[C@@H](Cc2ccccc2)C(=O)N[C@@H](C(C)C)C(=O)N1)[C@@H](C)CC)C(=O)N[C@@H](CC(N)=O)C(=O)N[C@@H](CO)C(N)=O [Mag(i + 4)13] (H-GIGKFLHSAKKFG[S5]AFV[S5]EI[Nle]NS-NH2; staple 14-18)
- MIC E. coli (E. coli): 3.1 µg/mL
- MIC B. cereus (B. cereus): 3.1 µg/mL
- MIC S. aureus (S. aureus): 6.2 µg/mL
- MIC P. aeruginosa (P. aeruginosa): 6.2 µg/mL
- % Hemolysis at 25 μg/ml (human red blood cells): 59.7%

SMILES: CCCC[C@H](NC(=O)[C@@H](NC(=O)[C@]1(C)CCCC=CCCC[C@](C)(NC(=O)[C@H](CCCCN)NC(=O)CNC(=O)[C@H](Cc2ccccc2)NC(=O)[C@H](CCCCN)NC(=O)[C@H](CCCCN)NC(=O)[C@H](C)NC(=O)[C@H](CO)NC(=O)[C@H](Cc2c[nH]cn2)NC(=O)[C@H](CC(C)C)NC(=O)[C@H](Cc2ccccc2)NC(=O)[C@H](CCCCN)NC(=O)CNC(=O)[C@@H](NC(=O)CN)[C@@H](C)CC)C(=O)N[C@@H](Cc2ccccc2)C(=O)N[C@@H](C(C)C)C(=O)NCC(=O)N1)[C@@H](C)CC)C(=O)N[C@@H](CC(N)=O)C(=O)N[C@@H](CO)C(N)=O [Mag(i + 4)14] (H-GIGKFLHSAKKFGK[S5]FVG[S5]I[Nle]NS-NH2; staple 15-19)
- MIC E. coli (E. coli): 1.6 µg/mL
- MIC B. cereus (B. cereus): 3.1 µg/mL
- MIC S. aureus (S. aureus): 3.1 µg/mL
- MIC P. aeruginosa (P. aeruginosa): 3.1 µg/mL
- % Hemolysis at 25 μg/ml (human red blood cells): 92.1%

SMILES: CCCC[C@H](NC(=O)[C@]1(C)CCCC=CCCC[C@](C)(NC(=O)[C@H](C)NC(=O)[C@H](CCCCN)NC(=O)CNC(=O)[C@H](Cc2ccccc2)NC(=O)[C@H](CCCCN)NC(=O)[C@H](CCCCN)NC(=O)[C@H](CCC(=O)O)NC(=O)[C@H](CO)NC(=O)[C@H](Cc2c[nH]cn2)NC(=O)[C@H](CC(C)C)NC(=O)[C@H](Cc2ccccc2)NC(=O)[C@H](CCCCN)NC(=O)CNC(=O)[C@@H](NC(=O)CN)[C@@H](C)CC)C(=O)N[C@@H](C(C)C)C(=O)NCC(=O)N[C@@H](CCC(=O)O)C(=O)N1)C(=O)N[C@@H](CC(N)=O)C(=O)N[C@@H](CO)C(N)=O [Mag(i + 4)15(A9E), GIGKFLHSEKKFGKAXVGEXBNS] (H-GIGKFLHSEKKFGKA[S5]VGE[S5][Nle]NS-NH2; staple 16-20)
- MIC E. coli (E. coli): 50 µg/mL
- MIC B. cereus (B. cereus): >50 µg/mL
- MIC S. aureus (S. aureus): >50 µg/mL
- MIC P. aeruginosa (P. aeruginosa): >50 µg/mL
- % Hemolysis at 25 μg/ml (human red blood cells): 0.6%

SMILES: CCCC[C@H](NC(=O)[C@]1(C)CCCC=CCCC[C@](C)(NC(=O)[C@H](C)NC(=O)[C@H](CCCCN)NC(=O)CNC(=O)[C@H](Cc2ccccc2)NC(=O)[C@H](CCCCN)NC(=O)[C@H](CCCCN)NC(=O)[C@H](CCCCN)NC(=O)[C@H](CO)NC(=O)[C@H](Cc2c[nH]cn2)NC(=O)[C@H](CC(C)C)NC(=O)[C@H](Cc2ccccc2)NC(=O)[C@H](CCCCN)NC(=O)CNC(=O)[C@@H](NC(=O)CN)[C@@H](C)CC)C(=O)N[C@@H](C(C)C)C(=O)NCC(=O)N[C@@H](CCC(=O)O)C(=O)N1)C(=O)N[C@@H](CC(N)=O)C(=O)N[C@@H](CO)C(N)=O [Mag(i + 4)15(A9K), GIGKFLHSKKKFGKAXVGEXBNS] (H-GIGKFLHSKKKFGKA[S5]VGE[S5][Nle]NS-NH2; staple 16-20)
- MIC E. coli (E. coli): 3.1 µg/mL
- MIC B. cereus (B. cereus): >50 µg/mL
- MIC S. aureus (S. aureus): >50 µg/mL
- MIC P. aeruginosa (P. aeruginosa): 12.5 µg/mL
- % Hemolysis at 25 μg/ml (human red blood cells): 1.9%

SMILES: CCCC[C@H](NC(=O)[C@]1(C)CCCC=CCCC[C@](C)(NC(=O)[C@H](CCC(=O)O)NC(=O)[C@H](CCCCN)NC(=O)CNC(=O)[C@H](Cc2ccccc2)NC(=O)[C@H](CCCCN)NC(=O)[C@H](CCCCN)NC(=O)[C@H](C)NC(=O)[C@H](CO)NC(=O)[C@H](Cc2c[nH]cn2)NC(=O)[C@H](CC(C)C)NC(=O)[C@H](Cc2ccccc2)NC(=O)[C@H](CCCCN)NC(=O)CNC(=O)[C@@H](NC(=O)CN)[C@@H](C)CC)C(=O)N[C@@H](C(C)C)C(=O)NCC(=O)N[C@@H](CCC(=O)O)C(=O)N1)C(=O)N[C@@H](CC(N)=O)C(=O)N[C@@H](CO)C(N)=O [Mag(i + 4)15(A15E), GIGKFLHSAKKFGKEXVGEXBNS] (H-GIGKFLHSAKKFGKE[S5]VGE[S5][Nle]NS-NH2; staple 16-20)
- MIC E. coli (E. coli): 3.1 µg/mL
- MIC B. cereus (B. cereus): 25 µg/mL
- MIC S. aureus (S. aureus): 50 µg/mL
- MIC P. aeruginosa (P. aeruginosa): 25 µg/mL
- % Hemolysis at 25 μg/ml (human red blood cells): 3.8%

SMILES: CCCC[C@H](NC(=O)[C@]1(C)CCCC=CCCC[C@](C)(NC(=O)[C@H](Cc2c[nH]cn2)NC(=O)[C@H](CCCCN)NC(=O)CNC(=O)[C@H](Cc2ccccc2)NC(=O)[C@H](CCCCN)NC(=O)[C@H](CCCCN)NC(=O)[C@H](C)NC(=O)[C@H](CO)NC(=O)[C@H](Cc2c[nH]cn2)NC(=O)[C@H](CC(C)C)NC(=O)[C@H](Cc2ccccc2)NC(=O)[C@H](CCCCN)NC(=O)CNC(=O)[C@@H](NC(=O)CN)[C@@H](C)CC)C(=O)N[C@@H](C(C)C)C(=O)NCC(=O)N[C@@H](CCC(=O)O)C(=O)N1)C(=O)N[C@@H](CC(N)=O)C(=O)N[C@@H](CO)C(N)=O [Mag(i + 4)15(A15H), GIGKFLHSAKKFGKHXVGEXBNS] (H-GIGKFLHSAKKFGKH[S5]VGE[S5][Nle]NS-NH2; staple 16-20)
- MIC E. coli (E. coli): 3.1 µg/mL
- MIC B. cereus (B. cereus): 6.2 µg/mL
- MIC S. aureus (S. aureus): 12.5 µg/mL
- MIC P. aeruginosa (P. aeruginosa): 12.5 µg/mL
- % Hemolysis at 25 μg/ml (human red blood cells): 4.7%
